Measured values from ChEMBL document CHEMBL1121678, “Antitumor agents. 44. Bis(helenalinyl) esters and related derivatives as novel potent antileukemic agents” (1981).

Experiments:
Assay type in all cases: functional
Mus musculus [1] = assay: In vivo antileukemic activity against P-388 lymphocytic leukemia in BDF1 male mice at 60 mg/kg/day intraperitoneal dose expressed as T/C
Mus musculus [2] = assay: Antileukemic activity of compound against the P-388 lymphocytic leukemic BDF1 male mice at 8(mg/kg)/day, administered intraperitoneally; 10.5/9.66 (Treated/control)
Mus musculus [3] = assay: Antileukemic activity of compound against the P-388 lymphocytic leukemic BDF1 male mice at 2(mg/kg)/day, administered intraperitoneally; 11.2/9.66 (Treated/control)
Mus musculus [4] = assay: In vivo antileukemic activity against P-388 lymphocytic leukemia in BDF1 male mice at 8(mg/kg)/day intraperitoneal dose expressed as T/C
Mus musculus [5] = assay: In vivo antileukemic activity against P-388 lymphocytic leukemia in BDF1 male mice at 2(mg/kg)/day intraperitoneal dose expressed as T/C
Mus musculus [6] = assay: In vivo antileukemic activity against P-388 lymphocytic leukemia in BDF1 male mice at 50(mg/kg)/day intraperitoneal dose expressed as T/C
Mus musculus [7] = assay: In vivo antileukemic activity against P-388 lymphocytic leukemia in BDF1 male mice at 12.5 mg/kg/day intraperitoneal dose expressed as T/C
Mus musculus [8] = assay: Antileukemic activity of compound against the P-388 lymphocytic leukemic BDF1 male mice at 12.5 mg/kg/day, administered intraperitoneally; 16.0/9.66 (Treated/control); conditions: route intraperitoneal
Mus musculus [9] = assay: Antileukemic activity of compound against the P-388 lymphocytic leukemic BDF1 male mice at 4(mg/kg)/day, administered intraperitoneally; 10.6/9.66 (Treated/control)
Mus musculus [10] = assay: In vivo antileukemic activity against P-388 lymphocytic leukemia in BDF1 male mice at 25(mg/kg)/day intraperitoneal dose expressed as T/C
Mus musculus [11] = assay: In vivo antileukemic activity against P-388 lymphocytic leukemia in BDF1 male mice at 4(mg/kg)/day intraperitoneal dose expressed as T/C
Mus musculus [12] = assay: Antileukemic activity of compound against the P-388 lymphocytic leukemic BDF1 male mice at 25(mg/kg)/day, administered intraperitoneally; 17.2/9.66 (Treated/control)
Mus musculus [13] = assay: Antileukemic activity of compound against the P-388 lymphocytic leukemic BDF1 male mice at 8(mg/kg)/day, administered intraperitoneally; 13.7/9.66 (Treated/control)
Mus musculus [14] = assay: Antileukemic activity of compound against the P-388 lymphocytic leukemic BDF1 male mice at 50(mg/kg)/day, administered intraperitoneally; 13.4/9.66 (Treated/control)
Mus musculus [15] = assay: In vivo antileukemic activity against P-388 lymphocytic leukemia in BDF1 male mice at 30(mg/kg)/day intraperitoneal dose expressed as T/C
Mus musculus [16] = assay: Antileukemic activity of compound against the P-388 lymphocytic leukemic BDF1 male mice at 15(mg/kg)/day, administered intraperitoneally; 9.8/9.66 (Treated/control)
Mus musculus [17] = assay: Antileukemic activity of compound against the P-388 lymphocytic leukemic BDF1 male mice at 60 mg/kg/day, administered intraperitoneally; 3.8/9.66 (Treated/control); conditions: route intraperitoneal
Mus musculus [18] = assay: Antileukemic activity of compound against the P-388 lymphocytic leukemic BDF1 male mice at 2(mg/kg)/day, administered intraperitoneally; 14.5/9.66 (Treated/control)
Mus musculus [19] = assay: Antileukemic activity of compound against the P-388 lymphocytic leukemic BDF1 male mice at 4(mg/kg)/day, administered intraperitoneally; 16.2/9.66 (Treated/control)
Mus musculus [20] = assay: In vivo antileukemic activity against P-388 lymphocytic leukemia in BDF1 male mice at 15(mg/kg)/day intraperitoneal dose expressed as T/C
Mus musculus [21] = assay: Antileukemic activity of compound against the P-388 lymphocytic leukemic BDF1 male mice at 30(mg/kg)/day, administered intraperitoneally; 6.7/9.66 (Treated/control)
Mus musculus [22] = assay: Antileukemic activity of compound against the P-388 lymphocytic leukemic BDF1 male mice at 8(mg/kg)/day, administered intraperitoneally; 16.7/9.66 (Treated/control)
Mus musculus [23] = assay: Antileukemic activity of compound against the P-388 lymphocytic leukemic BDF1 male mice at 15(mg/kg)/day, administered intraperitoneally; 10.8/9.66 (Treated/control)
Mus musculus [24] = assay: Antileukemic activity of compound against the P-388 lymphocytic leukemic BDF1 male mice at 8(mg/kg)/day, administered intraperitoneally; 11.9/9.66 (Treated/control)
Mus musculus [25] = assay: In vivo antileukemic activity against P-388 lymphocytic leukemia in BDF1 male mice at 12(mg/kg)/day intraperitoneal dose expressed as T/C
Mus musculus [26] = assay: Antileukemic activity of compound against the P-388 lymphocytic leukemic BDF1 male mice at 12(mg/kg)/day, administered intraperitoneally; 10.8/9.66 (Treated/control)
Mus musculus [27] = assay: Antileukemic activity of compound against the P-388 lymphocytic leukemic BDF1 male mice at 25(mg/kg)/day, administered intraperitoneally; 18.0/9.66 (Treated/control)

For `CC1C(=O)O[C@@H]2C[C@@H](C)[C@@H]3CCC(=O)[C@@]3(C)[C@@H](O)[C@H]12` (some centres undefined), the T/C (Mus musculus [1]) was 109% and the “Average survival (days)” value (Mus musculus [2]) was 10.5.

`C=C1C(=O)O[C@@H]2C[C@@H](C)[C@@H]3C=CC(=O)[C@@]3(C)[C@@H](OC(=O)CCC(=O)O[C@H]3[C@@H]4C(=C)C(=O)O[C@@H]4C[C@@H](C)[C@@H]4C=CC(=O)[C@]43C)[C@H]12` was tested, and the “Average survival (days)” value (Mus musculus [3]) was 11.2, the T/C (Mus musculus [4]) was 168% and the T/C (Mus musculus [5]) was 116%. The T/C (Mus musculus [6]) was 140%, the T/C (Mus musculus [7]) was 166% and the “Average survival (days)” value (Mus musculus [8]) was 16. The “Average survival (days)” value (Mus musculus [9]) was 10.6, the T/C (Mus musculus [10]) was 178% and the T/C (Mus musculus [11]) was 110%. For the same compound, the “Average survival (days)” value (Mus musculus [12]) was 17.2, the “Average survival (days)” value (Mus musculus [13]) was 13.7 and the “Average survival (days)” value (Mus musculus [14]) was 13.4.

For `C=C1C(=O)O[C@@H]2C[C@@H](C)[C@@H]3C=CC(=O)[C@@]3(C)[C@@H](OC(=O)CCCCC(=O)O[C@H]3[C@@H]4C(=C)C(=O)O[C@@H]4C[C@@H](C)[C@@H]4C=CC(=O)[C@]43C)[C@H]12`, the T/C (Mus musculus [15]) was 69%, the “Average survival (days)” value (Mus musculus [16]) was 9.8 and the T/C (Mus musculus [4]) was 173%. For the same compound, the T/C (Mus musculus [5]) was 150%, the “Average survival (days)” value (Mus musculus [17]) was 3.8 and the T/C (Mus musculus [1]) was 40%. For the same compound, the “Average survival (days)” value (Mus musculus [18]) was 14.5, the T/C (Mus musculus [11]) was 167% and the “Average survival (days)” value (Mus musculus [19]) was 16.2. For the same compound, the T/C (Mus musculus [20]) was 101%, the “Average survival (days)” value (Mus musculus [21]) was 6.7 and the “Average survival (days)” value (Mus musculus [22]) was 16.7.

For `C[C@@H]1C[C@H]2OC(=O)[C@@H](C)[C@H]2[C@H](OC(=O)CC(=O)O[C@H]2[C@@H]3[C@H](C)C(=O)O[C@@H]3C[C@@H](C)[C@@H]3C=CC(=O)[C@]32C)[C@]2(C)C(=O)C=C[C@@H]12`, the T/C (Mus musculus [4]) was 124%, the “Average survival (days)” value (Mus musculus [23]) was 10.8 and the “Average survival (days)” value (Mus musculus [24]) was 11.9. For the same compound, the T/C (Mus musculus [25]) was 112%, the “Average survival (days)” value (Mus musculus [26]) was 10.8 and the T/C (Mus musculus [20]) was 112%.

In the case of `O=c1[nH]cc(F)c(=O)[nH]1` [FLUOROURACIL], the “Average survival (days)” value (Mus musculus [27]) is reported as 18 and the T/C (Mus musculus [1]) is reported as 186%.
